Results reported in paper PMC8296573, “Synthesis and Biological Evaluation of Fingolimod Derivatives as Antibacterial Agents” (ACS Omega, 2021).
≈ marks a conversion by molar mass, not a printed value. Like-named read-outs stand apart in the source and are kept apart here. Marks after values point to notes of the source that are not given here.

Experiments:
[1] = test system: S. aureus ATCC 25923; assay: Antibacterial activity, post-exposure on preformed 18-h-old biofilms; assay type: cell-based, Staphylococcus aureus; details: ± SD; for inhibition at 25 µM / inhibition at 50 µM / inhibition at 100 µM / inhibition at 200 µM: Staphylococcus aureus; for inhibition at 25 µM: ATCC25923, 25 µM; for inhibition at 50 µM: ATCC25923, 50 µM; for inhibition at 100 µM: ATCC25923, 100 µM; for inhibition at 200 µM: ATCC25923, 200 µM
Outline: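 Biofilms grown 18 h without compound, medium then replaced and compound added for a further 24 h. Planktonic OD and resazurin (20 μM final) fluorescence (ex 560/em 590 nm) read; washed biofilms stained with 20 μM resazurin 30 min at 37 °C, then ethanol-fixed and crystal violet-stained, absorbance 595 nm.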

[2] = test system: P. aeruginosa ATCC 9027; assay: Antibacterial activity, pre-exposure; assay type: cell-based, Pseudomonas aeruginosa; details: for Average inhibition %, biofilms viability / Average inhibition %, planktonic cells viability / inhibition at 50 µM / inhibition at 100 µM / inhibition at 150 µM / inhibition at 200 µM: P. aeruginosa ATCC 9027, pre-exposure, ± SD; for inhibition at 50 µM / inhibition at 100 µM / inhibition at 150 µM / inhibition at 200 µM: ATCC9027
Outline: (§1)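 Growth prevention was tested by adding compounds together with the inoculum. Plates were incubated 18 h at 37 °C. Viability was read by resazurin fluorescence and biomass by crystal violet absorbance at 595 nm.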

[3] = test system: A. baumannii NCTC 13423; assay: Antibacterial activity, pre-exposure; assay type: cell-based, Acinetobacter baumannii; details: for Average inhibition %, biofilms viability / Average inhibition %, planktonic cells viability / inhibition at 10 µM / inhibition at 15 µM / inhibition at 25 µM / inhibition at 50 µM: A. baumannii NCTC 13423, pre-exposure, ± SD
Outline: as §1

[4] = test system: S. aureus ATCC 25923; assay: Antibacterial activity, pre-exposure (planktonic cells and biofilm formation); assay type: cell-based, Staphylococcus aureus; details: for inhibition at 5 µM / inhibition at 10 µM / inhibition at 15 µM / inhibition at 25 µM / Average inhibition %, biofilms viability / Average inhibition %, planktonic cells viability: pre-exposure, ± SD
Outline: as §1

[5] = read-out: Average inhibition %, biofilms biomass
[6] = read-out: Average inhibition %, planktonic cells turbidity

With CCCCCCCCc1ccc(CCC(N)(CO)CO)cc1 [fingolimod, Fingolimod] the “Average inhibition %, biofilms viability” value ([1]; 25 µM) was 19.2 ± 14.5%, the “Average inhibition %, planktonic cells viability” value ([1]; 25 µM) was 7.8 ± 3.6% and the “Average inhibition %, biofilms viability” value ([1]; 50 µM) was 35 ± 7%. The “Average inhibition %, planktonic cells viability” value ([1]; 50 µM) was 2.9 ± 2.6%, the “Average inhibition %, biofilms viability” value ([1]; 100 µM) was 52.2 ± 12.4% and the “Average inhibition %, planktonic cells viability” value ([1]; 100 µM) was 48.9 ± 16.2%. For the same molecule, the “Average inhibition %, biofilms viability” value ([1]; 200 µM) was 77.3 ± 19%, the “Average inhibition %, planktonic cells viability” value ([1]; 200 µM) was 90.5 ± 9.9% and the inhibition at 25 µM [1, 5] was 39.7 ± 16.2%. For the same molecule, the inhibition at 25 µM [1, 6] was 1.1 ± 2%, the inhibition at 50 µM [1, 5] was 60.7 ± 12.4% and the inhibition at 50 µM [1, 6] was 13.8 ± 11.2%. For the same molecule, the inhibition at 100 µM [1, 5] was 67.3 ± 9.5%, the inhibition at 100 µM [1, 6] was 42.4 ± 7% and the inhibition at 200 µM [1, 5] was 71 ± 11%. For the same molecule, the inhibition at 200 µM [1, 6] was 75.5 ± 11%, the “Average inhibition %, biofilms viability” value ([2]; 50 µM) was 12.4 ± 13.4% and the “Average inhibition %, planktonic cells viability” value ([2]; 50 µM) was 43.9 ± 35.5%. For the same molecule, the “Average inhibition %, biofilms viability” value ([2]; 100 µM) was 36.5 ± 23.1%, the “Average inhibition %, planktonic cells viability” value ([2]; 100 µM) was 92.5 ± 4.8% and the “Average inhibition %, biofilms viability” value ([2]; 150 µM) was 42.4 ± 25.3%. The “Average inhibition %, planktonic cells viability” value ([2]; 150 µM) was 94.2 ± 3.6%, the “Average inhibition %, biofilms viability” value ([2]; 200 µM) was 47.5 ± 22.6% and the “Average inhibition %, planktonic cells viability” value ([2]; 200 µM) was 95 ± 1.2%. For the same molecule, the MIC ([2]; Pseudomonas aeruginosa, ATCC9027, pre-exposure, Inactive = no activity up to 200 μM, > = some inhibition but no MIC reached, read-out: MIC P. aeruginosa ATCC 9027) was > 200 µM, the inhibition at 50 µM ([2]; Pseudomonas aeruginosa, 50 µM, read-out: Average inhibition %, biofilms biomass) was 30.1 ± 16.2% and the inhibition at 50 µM ([2]; Pseudomonas aeruginosa, 50 µM, read-out: Average inhibition %, planktonic cells turbidity) was 51.5 ± 24%. The inhibition at 100 µM ([2]; Pseudomonas aeruginosa, 100 µM, read-out: Average inhibition %, biofilms biomass) was 36.9 ± 13.7%, the inhibition at 100 µM ([2]; Pseudomonas aeruginosa, 100 µM, read-out: Average inhibition %, planktonic cells turbidity) was 85.9 ± 3.6% and the inhibition at 150 µM ([2]; Pseudomonas aeruginosa, 150 µM, read-out: Average inhibition %, biofilms biomass) was 40.7 ± 17.8%. It also gave an inhibition at 150 µM ([2]; Pseudomonas aeruginosa, 150 µM, read-out: Average inhibition %, planktonic cells turbidity) of 86.8 ± 3.4%, an inhibition at 200 µM ([2]; Pseudomonas aeruginosa, 200 µM, read-out: Average inhibition %, biofilms biomass) of 45.4 ± 18.5% and an inhibition at 200 µM ([2]; Pseudomonas aeruginosa, 200 µM, read-out: Average inhibition %, planktonic cells turbidity) of 85.1 ± 3.8%. The “MIC P. aeruginosa ATCC 9027” value ([2]; pre-exposure, Inactive = no activity up to 200 μM, > = some inhibition but no MIC reached, listed as Fgd) was > 200 ^b μM, the “Average inhibition %, biofilms viability” value ([3]; 10 µM) was 0.2 ± 0.5% and the “Average inhibition %, planktonic cells viability” value ([3]; 10 µM) was 5.9 ± 4.9%. For the same molecule, the “Average inhibition %, biofilms viability” value ([3]; 15 µM) was 63.6 ± 31.5%, the “Average inhibition %, planktonic cells viability” value ([3]; 15 µM) was 74.1 ± 38.2% and the “Average inhibition %, biofilms viability” value ([3]; 25 µM) was 97.6 ± 2.3%. The “Average inhibition %, planktonic cells viability” value ([3]; 25 µM) was 99.5 ± 0.3%, the “Average inhibition %, biofilms viability” value ([3]; 50 µM) was 98.4 ± 1.1% and the “Average inhibition %, planktonic cells viability” value ([3]; 50 µM) was 99.4 ± 0.4%. It also gave an inhibition at 10 µM ([3]; Acinetobacter baumannii, NCTC13423, 10 µM, read-out: Average inhibition %, biofilms biomass) of 1.9 ± 3.9%, an inhibition at 10 µM ([3]; Acinetobacter baumannii, NCTC13423, 10 µM, read-out: Average inhibition %, planktonic cells turbidity) of 0% and an inhibition at 15 µM ([3]; Acinetobacter baumannii, NCTC13423, 15 µM, read-out: Average inhibition %, biofilms biomass) of 44.1 ± 26.9%. For the same molecule, the inhibition at 15 µM ([3]; Acinetobacter baumannii, NCTC13423, 15 µM, read-out: Average inhibition %, planktonic cells turbidity) was 71.1 ± 37.7%, the inhibition at 25 µM ([3]; Acinetobacter baumannii, NCTC13423, 25 µM, read-out: Average inhibition %, biofilms biomass) was 79.2 ± 13.4% and the inhibition at 25 µM ([3]; Acinetobacter baumannii, NCTC13423, 25 µM, read-out: Average inhibition %, planktonic cells turbidity) was 98.8 ± 2%. It also gave an inhibition at 50 µM ([3]; Acinetobacter baumannii, NCTC13423, 50 µM, read-out: Average inhibition %, biofilms biomass) of 84.8 ± 7.8%, an inhibition at 50 µM ([3]; Acinetobacter baumannii, NCTC13423, 50 µM, read-out: Average inhibition %, planktonic cells turbidity) of 98.5 ± 1.4% and an MIC ([3]; Acinetobacter baumannii, NCTC13423, pre-exposure, Inactive = no activity up to 50 μM, > = some inhibition but no MIC reached, read-out: MIC A. baumannii NCTC 13423) of 25 µM (≈ 7.69 µg/mL). It also gave an MIC ([4]; Staphylococcus aureus, ATCC25923, lowest concentration with no visible growth (>90% inhibition of turbidity and viability of planktonic cells), 18 h, read-out: MIC S. aureus ATCC 25923) of 15 µM (≈ 4.61 µg/mL), an inhibition at 5 µM ([4]; Staphylococcus aureus, ATCC25923, 5 µM, read-out: Average inhibition %, biofilms biomass) of 37 ± 11.2% and an inhibition at 5 µM ([4]; Staphylococcus aureus, ATCC25923, 5 µM, read-out: Average inhibition %, planktonic cells turbidity) of 25 ± 10.6%. For the same molecule, the inhibition at 10 µM ([4]; Staphylococcus aureus, ATCC25923, 10 µM, read-out: Average inhibition %, biofilms biomass) was 42.2 ± 5%, the inhibition at 10 µM ([4]; Staphylococcus aureus, ATCC25923, 10 µM, read-out: Average inhibition %, planktonic cells turbidity) was 36.7 ± 10% and the inhibition at 15 µM ([4]; Staphylococcus aureus, ATCC25923, 15 µM, read-out: Average inhibition %, biofilms biomass) was 91.7 ± 6%. The inhibition at 15 µM ([4]; Staphylococcus aureus, ATCC25923, 15 µM, read-out: Average inhibition %, planktonic cells turbidity) was 99.8 ± 0.1%, the inhibition at 25 µM ([4]; Staphylococcus aureus, ATCC25923, 25 µM, read-out: Average inhibition %, biofilms biomass) was 90.8 ± 6.9% and the inhibition at 25 µM ([4]; Staphylococcus aureus, ATCC25923, 25 µM, read-out: Average inhibition %, planktonic cells turbidity) was 99.8 ± 0.1%. The “Average inhibition %, biofilms viability” value ([4]; 5 µM) was 38.7 ± 5.5%, the “Average inhibition %, planktonic cells viability” value ([4]; 5 µM) was 16.1 ± 26.5% and the “Average inhibition %, biofilms viability” value ([4]; 10 µM) was 41.5 ± 7.1%. For the same molecule, the “Average inhibition %, planktonic cells viability” value ([4]; 10 µM) was 17.2 ± 23.4%, the “Average inhibition %, biofilms viability” value ([4]; 15 µM) was 99.7 ± 0.2% and the “Average inhibition %, planktonic cells viability” value ([4]; 15 µM) was 99.9 ± 0%. For the same molecule, the “Average inhibition %, biofilms viability” value ([4]; 25 µM) was 99.5 ± 0.1% and the “Average inhibition %, planktonic cells viability” value ([4]; 25 µM) was 99.9 ± 0.1%.
